{"source": "patent US20070111318A1", "about": "(priority 2003, published 2007)", "tested_on": "ddY mice", "settings": "mouse, in vivo, ip", "data": [{"smiles": "C=C(C[C@@H]1C[C@H](O)[C@]2(C)O[C@@H]3C[C@@H]4O[C@@H]5C[C@]6(C)O[C@]7(C)CC[C@@H]8O[C@@H]9C[C@]%10(C)O[C@@H]%11C(C)=CC(=O)O[C@H]%11C[C@H]%10O[C@H]9C[C@@H](C)[C@H]8O[C@H]7C[C@H]6O[C@@]5(C)C/C=C\\[C@H]4O[C@H]3C[C@H]2O1)C(=O)O", "note": "[BTX-B5, brevetoxin B5]", "values": [{"measurement": "symptoms after injection", "result": "symptoms of neurotoxicity extremely similar to those caused by other brevetoxins"}]}]}
